This is an account of results in article PMC4669722, “Antitumour potential of BPT: a dual inhibitor of cdk4 and tubulin polymerization” (Cell Death & Disease, 2015).

By pIC50 is commonly meant the negative decadic logarithm of the IC50, by convention in mol/L.

Test [1] deals with several human cancer cells. In words: Growth inhibition of several human cancer cells. Format: cell-based. Here is the method:
(§1) All 10 human cancer cell lines were maintained at 37 °C in 5% CO2 in RPMI-1640 medium, supplemented with 10% foetal calf serum and 100 μg/ml normocin. The 10 cancer cell lines used for screening were all obtained from ATCC (Manassas, VA, USA); they were the NSCLC (a form of cancer that is resistant to chemotherapy) lines: NCI-H460 (pRb^+, p53^+), A549 (pRb^+, p53^+), Calu-1 (pRb^+, p53-null), NCI-H1299 (pRb^+, p53-null), NCI-H358 (pRb-null, p53-null); the colon cancer line LS174T (pRb^+, p53^+); the prostate cancer line PC-3 (pRb^+, p53-null); the pancreatic cancer line MiaPaca (pRb^+, p53-mutant). The genotypes within brackets indicate the status of the tumour suppressor proteins pRb and p53. The mouse embryonic normal hepatic cell line (BNL CL2) and its SV40 large T-antigen-transformed counterpart cell line (BNL SV A.8) were also purchased from ATCC. The large T-antigen inactivates the tumour suppressor proteins p53 and pRb. The detailed procedure of cell proliferation (MTT) assay and IC50 determination was described previously.[32]

In another test the target is Cdk5-p35 (Homo sapiens, UniProt Q00535). In words: Kinase profiling (Millipore), Cdk5-p35. The class given is biochemical. How it is done: (§2) The in vitro kinase assays for testing against Cdk4-cyclin D1, Cdk2-cyclin A, Cdk1-cyclin B1 and Cdk9-cyclin T1 were performed in-house. The methodology and results have been reported previously.[20], [30], [31], [32], [45] The kinase profiling for 58 representative kinases was carrried out commercially at Millipore Bioscience Division, Livingston, UK.
Cdk5-p35, sequence (Q00535 whole entry): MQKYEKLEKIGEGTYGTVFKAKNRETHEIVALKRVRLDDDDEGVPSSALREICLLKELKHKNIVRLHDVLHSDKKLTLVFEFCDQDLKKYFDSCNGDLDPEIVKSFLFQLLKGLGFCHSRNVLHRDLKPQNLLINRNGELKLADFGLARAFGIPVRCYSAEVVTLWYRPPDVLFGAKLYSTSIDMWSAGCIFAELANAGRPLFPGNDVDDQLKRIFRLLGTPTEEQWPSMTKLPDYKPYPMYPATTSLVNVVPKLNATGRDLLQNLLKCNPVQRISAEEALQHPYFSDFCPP
Cdk5-p35, sequence (Q15078 whole entry partner): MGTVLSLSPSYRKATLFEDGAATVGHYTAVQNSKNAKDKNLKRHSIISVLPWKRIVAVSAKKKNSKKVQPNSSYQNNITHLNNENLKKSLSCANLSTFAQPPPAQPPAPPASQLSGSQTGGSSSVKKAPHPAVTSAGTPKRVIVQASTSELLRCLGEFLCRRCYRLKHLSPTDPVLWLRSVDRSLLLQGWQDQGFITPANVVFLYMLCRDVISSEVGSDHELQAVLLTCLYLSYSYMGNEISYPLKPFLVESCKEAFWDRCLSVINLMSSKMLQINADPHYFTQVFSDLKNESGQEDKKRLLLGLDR

The subject of a further test is tubulin. In words: Cell-free tubulin polymerization assay in vitro. The class given is biochemical. To be noted: for Vmax of tubulin polymerization: control 19 mOD/min. How it is done:
The purified tubulin was obtained commercially (Cytoskeleton Inc., Denver, CO, USA) and the polymerization assays were carried out according to the method described previously.[36] […] The resulting polymerization curves are representative of the three phases of microtubule polymerization, namely nucleation, growth and steady-state equilibrium. Paclitaxel and nocodazole were used in the assay as a known enhancer and inhibitor of tubulin polymerization, respectively. The ability of BPT to inhibit tubulin polymerization in vitro was determined according to the manufacturer's instructions. Briefly, tubulin protein (3 mg/ml) was polymerized in GTP buffer (80 mM PIPES, pH 6.9, 2 mM MgCl2, 0.5 mM EGTA, 10.2% glycerol and 1 mM GTP) in the presence of a range of BPT concentrations at 37 °C in a temperature-regulated Biotech spectrophotometer (Potton, Bedfordshire, UK). The absorbance (at 340 nm) kinetics of 61 cycles for each sample was studied and the readings were recorded at an interval of 1 min.

Another test has as its target IGF-1 R (Homo sapiens, UniProt P08069). In words: Kinase profiling (Millipore), IGF-1 R. The class given is biochemical. Here is the method:
as §2

The next test has as its target MEK1 (Homo sapiens, UniProt Q02750). In words: Kinase profiling (Millipore), MEK1. The class given is biochemical. How it is done: as §2
Test [2] has as its system LS174T (colorectal carcinoma; p53+, pRb+). In words: Cell proliferation (MTT) assay, LS174T. The class given is cell-based. The note with it: Homo sapiens, 48 h, read-out: IC50 cell growth inhibition, LS174T. Here is the method:
as §1

In another test the target is EGFR (Homo sapiens, UniProt P00533). In words: Kinase profiling (Millipore), EGFR. The class given is biochemical. How it is done:
as §2

For test [3], the system named is p53+ A549 and LS174T cells. In words: Western blot of cell cycle proteins in p53+ cells. Format: cell-based, human. To be noted: IC50 concentration, 24 h. Here is the method: A549, LS174T and MiaPaCa cells were seeded in 25 cm^2 tissue culture flasks in the complete growth medium. […] Cells were harvested by trypsinization, washed in ice-cold PBS and then lysed in buffer (Sigma-Aldrich; cat. no. C-2978) containing protease inhibitor cocktail (Sigma-Aldrich; cat. no. P8340). The lysates were centrifuged at 14 000 r.p.m. (revolutions per minute) for 10 min at 4 °C and the total protein concentrations were estimated in the clear supernatants using the Bradford method. Equal amounts of protein (40 μg) were loaded and electrophoresed on 10% SDS-polyacrylamide gels and blotted on Immobilon-P Transfer Membrane (Millipore; cat. no.IPVH20200). The blots were probed with respective primary antibodies (at 4 °C, overnight) at the following dilutions: cdc2 (New England Biolabs, Hitchin, UK; cat. no. 9110) at 1 : 1000 to detect Cdk1; cyclin B1 (CRUK, London, UK; cat. no. V152) at 1 : 1500 dilution to detect cyclin B1; Pab 1801 (Santa Cruz Biotechnology, Heidelberg, Germany; cat. no. sc-98) at 1 : 500 dilution to detect p53; N-20 (Santa Cruz Biotechnology; cat. no. sc-469) at 1 : 500 dilution to detect p21; C-19 (Santa Cruz Biotechnology; cat. no. sc-528) at 1 : 250 dilution to detect p27; AC-40 (Sigma-Aldrich; cat. no. A4700) at 1 : 2000 dilution to detect actin. Appropriate secondary antibodies conjugated with horseradish peroxidase were used and the protein bands were visualized by chemiluminescence using the ECL Kit (Santa Cruz Biotechnology; cat. no. sc-2048).

Another test relates to NCI-H1299 cells. In words: Flow cytometric cell cycle analysis, NCI-H1299. Format: cell-based, human. The note with it: NCI-H1299, IC50 concentration, 24 h. How it is done:
The untreated (control) and treated (with test compounds) cells were harvested by trypsinization, washed once with PBS and then fixed in 70% chilled (−20 °C) ethanol for minimum 1 h. After the fixation step, cells were centrifuged for 5 min at 3000 × g at room temperature, and the pellet was suspended in PBS containing 50 μg/ml propidium iodide (Sigma-Aldrich, Dorset, UK; cat. no. P-4170) and 0.5 mg/ml DNase-free ribonuclease (Sigma-Aldrich; cat. no. R-5503). The cells were stained for 1 h in the dark at 4 °C. Cell cycle analysis was performed on the Beckman Coulter (Epics Altra) fluorescence-activated cell sorter (Beckman Coulter UK Ltd, Buckinghamshire, UK). To gate all the events that represent single cells, and not cell doublets or cell clumps, the following analyses were performed on the samples. Cytograms of propidium iodide fluorescence peak signal versus integrated fluorescence or the linear signal were plotted. All data points on the straight line were isolated in a single gate and the gated data was further used for plotting a histogram that represents a complete cell cycle. The total number of events was not allowed to exceed 200 events per s. Data acquisition was stopped after a minimum of 10 000 events had been collected.
(Flow cytometry measures light scatter and fluorescence of single cells or particles in a stream.)

The target in the next test is Cdk9-cyclin T1 (Homo sapiens, UniProt P50750). In words: In vitro kinase assay, Cdk9-cyclin T1 (in-house). Format: biochemical. The note with it: three independent experiments; read-out: IC50 (mean±S.D.), Cdk9-cyclin T1. Here is the method:
as §2

The structures appear in SMILES notation. pIC50: −log10 of the molar value. A value given as a limit tells only on which side of the number the result lay.

EGFR, sequence (P00533 25-1210): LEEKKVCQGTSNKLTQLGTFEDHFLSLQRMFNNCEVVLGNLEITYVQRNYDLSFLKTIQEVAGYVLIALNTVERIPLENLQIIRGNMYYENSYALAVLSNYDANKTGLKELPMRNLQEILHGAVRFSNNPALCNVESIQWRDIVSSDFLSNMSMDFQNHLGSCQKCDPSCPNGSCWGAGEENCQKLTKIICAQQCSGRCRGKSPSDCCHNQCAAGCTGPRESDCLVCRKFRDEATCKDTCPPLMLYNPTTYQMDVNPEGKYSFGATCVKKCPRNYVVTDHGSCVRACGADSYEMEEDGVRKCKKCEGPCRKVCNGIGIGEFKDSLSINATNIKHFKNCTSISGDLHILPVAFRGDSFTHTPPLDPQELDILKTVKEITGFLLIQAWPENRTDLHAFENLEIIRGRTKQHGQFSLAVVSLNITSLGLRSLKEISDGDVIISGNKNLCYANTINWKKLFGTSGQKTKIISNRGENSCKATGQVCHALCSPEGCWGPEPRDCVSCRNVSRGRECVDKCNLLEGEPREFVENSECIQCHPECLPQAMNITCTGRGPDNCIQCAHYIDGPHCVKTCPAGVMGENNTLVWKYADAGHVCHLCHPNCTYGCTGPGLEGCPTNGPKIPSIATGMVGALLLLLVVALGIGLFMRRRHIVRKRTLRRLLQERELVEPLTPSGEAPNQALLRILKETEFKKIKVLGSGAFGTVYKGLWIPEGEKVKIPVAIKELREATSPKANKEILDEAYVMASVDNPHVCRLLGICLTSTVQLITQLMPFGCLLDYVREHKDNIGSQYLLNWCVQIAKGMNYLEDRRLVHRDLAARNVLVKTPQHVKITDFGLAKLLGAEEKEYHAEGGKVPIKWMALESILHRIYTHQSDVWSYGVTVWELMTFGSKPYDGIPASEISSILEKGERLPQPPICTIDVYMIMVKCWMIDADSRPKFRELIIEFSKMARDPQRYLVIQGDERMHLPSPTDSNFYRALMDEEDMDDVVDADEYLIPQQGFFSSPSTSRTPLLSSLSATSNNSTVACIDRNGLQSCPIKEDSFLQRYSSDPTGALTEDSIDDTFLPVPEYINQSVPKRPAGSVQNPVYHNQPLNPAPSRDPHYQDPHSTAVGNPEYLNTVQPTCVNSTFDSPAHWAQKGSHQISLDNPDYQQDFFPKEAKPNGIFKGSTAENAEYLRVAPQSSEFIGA
Cdk9-cyclin T1, sequence (P50750 whole entry): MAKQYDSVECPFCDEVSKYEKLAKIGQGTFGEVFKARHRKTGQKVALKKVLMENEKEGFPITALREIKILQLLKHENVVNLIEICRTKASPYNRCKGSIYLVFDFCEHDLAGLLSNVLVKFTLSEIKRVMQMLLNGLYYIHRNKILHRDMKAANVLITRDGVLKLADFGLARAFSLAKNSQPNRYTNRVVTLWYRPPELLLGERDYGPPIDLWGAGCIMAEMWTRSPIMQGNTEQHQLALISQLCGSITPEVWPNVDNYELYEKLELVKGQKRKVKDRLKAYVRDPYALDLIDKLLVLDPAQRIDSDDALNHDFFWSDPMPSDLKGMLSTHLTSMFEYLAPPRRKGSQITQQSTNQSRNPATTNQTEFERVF
Cdk9-cyclin T1, sequence (O60563 whole entry partner): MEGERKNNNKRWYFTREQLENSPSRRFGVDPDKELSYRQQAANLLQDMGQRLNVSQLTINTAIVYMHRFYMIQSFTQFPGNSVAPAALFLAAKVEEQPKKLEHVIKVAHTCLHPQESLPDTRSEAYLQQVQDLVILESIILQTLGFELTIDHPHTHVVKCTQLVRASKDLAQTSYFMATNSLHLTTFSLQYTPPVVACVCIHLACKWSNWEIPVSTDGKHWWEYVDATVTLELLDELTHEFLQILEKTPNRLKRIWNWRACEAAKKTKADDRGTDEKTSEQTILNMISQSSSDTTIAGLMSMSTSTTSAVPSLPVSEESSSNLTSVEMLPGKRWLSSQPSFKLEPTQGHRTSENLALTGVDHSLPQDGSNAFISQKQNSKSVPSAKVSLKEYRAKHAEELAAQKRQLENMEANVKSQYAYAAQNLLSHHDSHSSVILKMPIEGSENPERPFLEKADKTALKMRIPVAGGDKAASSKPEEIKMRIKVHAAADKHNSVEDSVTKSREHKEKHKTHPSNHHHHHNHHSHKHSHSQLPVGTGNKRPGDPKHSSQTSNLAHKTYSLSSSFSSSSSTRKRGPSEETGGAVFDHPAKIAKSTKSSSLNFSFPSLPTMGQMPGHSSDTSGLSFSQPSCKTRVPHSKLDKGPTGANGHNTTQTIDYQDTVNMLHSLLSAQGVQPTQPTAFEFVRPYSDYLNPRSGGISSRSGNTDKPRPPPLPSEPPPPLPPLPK
IGF-1 R, sequence (P08069 31-1367): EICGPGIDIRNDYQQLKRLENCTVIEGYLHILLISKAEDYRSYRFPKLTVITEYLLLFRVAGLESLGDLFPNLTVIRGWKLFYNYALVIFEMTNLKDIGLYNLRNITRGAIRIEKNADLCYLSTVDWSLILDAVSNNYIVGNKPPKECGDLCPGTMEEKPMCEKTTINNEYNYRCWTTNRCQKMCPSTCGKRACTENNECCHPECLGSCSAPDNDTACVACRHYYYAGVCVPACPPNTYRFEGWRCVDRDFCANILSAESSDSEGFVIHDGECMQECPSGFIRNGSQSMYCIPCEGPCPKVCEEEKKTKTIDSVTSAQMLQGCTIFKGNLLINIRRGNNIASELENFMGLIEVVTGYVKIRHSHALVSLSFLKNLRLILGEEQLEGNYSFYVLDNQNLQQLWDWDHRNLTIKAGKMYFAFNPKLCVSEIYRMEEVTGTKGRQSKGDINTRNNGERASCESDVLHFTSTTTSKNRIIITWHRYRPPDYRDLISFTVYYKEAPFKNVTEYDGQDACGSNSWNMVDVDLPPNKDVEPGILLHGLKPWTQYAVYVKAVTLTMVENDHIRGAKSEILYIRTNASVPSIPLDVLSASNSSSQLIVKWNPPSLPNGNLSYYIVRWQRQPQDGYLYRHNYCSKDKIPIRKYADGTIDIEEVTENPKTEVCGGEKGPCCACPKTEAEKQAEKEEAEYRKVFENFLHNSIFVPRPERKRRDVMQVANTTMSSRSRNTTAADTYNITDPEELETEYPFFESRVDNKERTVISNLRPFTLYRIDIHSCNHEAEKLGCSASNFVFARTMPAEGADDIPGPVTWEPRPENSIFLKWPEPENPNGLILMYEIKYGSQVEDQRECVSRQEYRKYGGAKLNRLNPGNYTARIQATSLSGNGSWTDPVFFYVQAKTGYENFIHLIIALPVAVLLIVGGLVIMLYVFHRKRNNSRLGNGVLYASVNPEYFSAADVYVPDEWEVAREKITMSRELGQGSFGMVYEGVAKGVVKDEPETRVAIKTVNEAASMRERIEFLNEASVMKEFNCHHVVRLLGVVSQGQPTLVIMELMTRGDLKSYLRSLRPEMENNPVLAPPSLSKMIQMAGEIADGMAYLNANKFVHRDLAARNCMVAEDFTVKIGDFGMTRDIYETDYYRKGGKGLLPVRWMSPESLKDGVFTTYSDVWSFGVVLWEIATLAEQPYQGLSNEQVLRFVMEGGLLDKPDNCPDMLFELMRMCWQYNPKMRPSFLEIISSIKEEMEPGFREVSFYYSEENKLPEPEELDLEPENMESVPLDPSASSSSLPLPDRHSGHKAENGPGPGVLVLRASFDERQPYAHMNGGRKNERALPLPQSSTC
MEK1, sequence (Q02750 whole entry): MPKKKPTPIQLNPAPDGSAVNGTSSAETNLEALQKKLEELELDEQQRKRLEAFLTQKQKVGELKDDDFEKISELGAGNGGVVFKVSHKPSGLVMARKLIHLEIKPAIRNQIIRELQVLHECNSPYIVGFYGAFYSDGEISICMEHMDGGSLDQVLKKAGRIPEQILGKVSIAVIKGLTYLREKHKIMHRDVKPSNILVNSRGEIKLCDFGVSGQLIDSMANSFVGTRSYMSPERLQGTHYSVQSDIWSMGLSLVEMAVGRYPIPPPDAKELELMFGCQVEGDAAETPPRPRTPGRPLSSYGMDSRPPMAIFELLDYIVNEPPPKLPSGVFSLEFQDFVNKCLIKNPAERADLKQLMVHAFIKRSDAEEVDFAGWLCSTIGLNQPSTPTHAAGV

Turning to `O=C(c1ccccc1-c1ccccc1)N1CCc2c([nH]c3ccccc23)C1` [BPT, 2-(biphenyl-2-carbonyl)-2,3,4,9-tetrahydro-1H-pyrido[3,4-b]indole], the pIC50 was more than 6.00 in test [1]; less than 5.00 against Cdk5-p35; less than 5.00 against IGF-1 R; less than 5.00 against MEK1; 6.07 in test [2]; less than 5.00 against EGFR. For the same molecule, the pIC50 on Cdk9-cyclin T1 is less than 3.00. Further, the “Vmax of tubulin polymerization” value is given as 12.5 mOD/min in the test with tubulin (0.5 μM), 9.2 mOD/min with tubulin (1 μM), 3 mOD/min with tubulin (2.5 μM) and 0.5 mOD/min in the test with tubulin (5 μM). Also, the “reduction in final polymer mass” value in the test with tubulin (0.5-5 μM) is on record as “up to 80%”. In addition, the “induction of p53” value in test [3] is “more than 10 fold”. Moreover, the “levels of p21CIP1/WAF1 (p21)” value in [3] is given as “increase”. Further, the “levels of p27KIP1 (p27)” value in test [3] is given as “elevated”. In addition, the “Cdk1 and cyclin B1 protein levels” value in test [3] (versus untreated control) is given as “downregulated”. Further, the “cells in G2/M” value in the test on NCI-H1299 cells amounted to 50%.
